Some results are limits rather than exact numbers.

Holding throughout (assay type): biochemical
Test [1] addresses T1, Lck (Homo sapiens, UniProt P06239).
T1 construct: Kinases are expressed as either kinase domains or full length constructs; made in house
The test is described as follows: Kinase inhibition assay (33P transfer), Lck. The settings on record: Table 3, class symbols; read-out: Lck-1. The essentials:
(§1)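 Measured by scintillation: radiolabelled phosphate added by tagged recombinant kinases to poly(Glu,Tyr) 4:1 or poly(Arg,Ser) 3:1 attached to microtiter wells, counted once free label was washed away with 0.5% phosphoric acid.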

The target in test [2] is T2, Zap-70 (Homo sapiens, UniProt P43403).
T2 construct: Kinases are expressed as either kinase domains or full length constructs; made in house
T2 sequence (P43403 1-619): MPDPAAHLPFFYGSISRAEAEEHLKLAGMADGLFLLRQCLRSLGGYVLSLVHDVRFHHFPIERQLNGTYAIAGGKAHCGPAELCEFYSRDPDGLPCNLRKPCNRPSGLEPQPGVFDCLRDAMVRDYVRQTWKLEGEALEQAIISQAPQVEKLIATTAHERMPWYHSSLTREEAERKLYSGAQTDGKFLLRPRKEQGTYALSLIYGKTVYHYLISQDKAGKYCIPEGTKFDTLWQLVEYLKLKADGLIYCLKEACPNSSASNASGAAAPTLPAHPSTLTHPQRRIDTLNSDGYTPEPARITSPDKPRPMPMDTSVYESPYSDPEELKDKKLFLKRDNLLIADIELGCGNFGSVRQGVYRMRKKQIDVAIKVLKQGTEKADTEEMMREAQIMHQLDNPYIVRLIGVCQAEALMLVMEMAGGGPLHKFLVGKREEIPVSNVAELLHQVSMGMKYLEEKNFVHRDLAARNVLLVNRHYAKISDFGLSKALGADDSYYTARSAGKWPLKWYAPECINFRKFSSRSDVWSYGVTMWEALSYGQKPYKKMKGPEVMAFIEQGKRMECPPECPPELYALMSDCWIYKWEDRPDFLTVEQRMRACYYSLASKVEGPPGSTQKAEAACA
The test is described as follows: Kinase inhibition assay (33P transfer), Zap-70. Particulars: Table 3, class symbols; read-out: Zap-1. The essentials: as §1

Test [3] has as its target T3, Itk (Homo sapiens, UniProt Q08881).
T3 construct: Kinases are expressed as either kinase domains or full length constructs; made in house
T3 sequence (Q08881 1-620): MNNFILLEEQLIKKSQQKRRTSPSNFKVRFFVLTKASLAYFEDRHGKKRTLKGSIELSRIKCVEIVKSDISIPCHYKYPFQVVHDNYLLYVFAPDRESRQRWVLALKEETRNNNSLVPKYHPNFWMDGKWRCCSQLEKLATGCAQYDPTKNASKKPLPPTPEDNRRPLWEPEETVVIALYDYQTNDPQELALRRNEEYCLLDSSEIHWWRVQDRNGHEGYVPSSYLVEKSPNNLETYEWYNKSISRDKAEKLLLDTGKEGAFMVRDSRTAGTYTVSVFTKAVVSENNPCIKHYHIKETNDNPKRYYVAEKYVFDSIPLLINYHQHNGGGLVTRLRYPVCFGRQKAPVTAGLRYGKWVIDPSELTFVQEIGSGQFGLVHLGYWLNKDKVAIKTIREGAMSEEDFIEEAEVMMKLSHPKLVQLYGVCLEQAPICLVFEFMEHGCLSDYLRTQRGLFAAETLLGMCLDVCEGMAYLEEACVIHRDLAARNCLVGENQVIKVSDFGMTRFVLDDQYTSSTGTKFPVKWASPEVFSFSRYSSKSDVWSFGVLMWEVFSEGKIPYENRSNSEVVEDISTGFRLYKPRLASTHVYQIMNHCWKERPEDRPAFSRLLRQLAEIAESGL
As to the kind of experiment: Kinase inhibition assay (33P transfer), Itk. Particulars: Table 3, class symbols; read-out: Itk-1. The essentials:
(§2)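 Read-out: scintillation counts of 33P moved from ATP onto synthetic peptide polymer coated on the well surface, after washing with 0.5% phosphoric acid. Enzymes were tagged (GST or polyHistidine) and came from bacterial or insect-cell expression. IC50 marks 50% loss of incorporated label.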

Test [4] addresses T4, EGFR (Homo sapiens, UniProt P00533).
T4 construct: Kinases are expressed as either kinase domains or full length constructs; made in house
The test is described as follows: Kinase inhibition assay (33P transfer), EGFR. The settings on record: Table 2, class symbols A-E; read-out: EGFR-1. The essentials:
as §2

The target of test [5] is T5, ErbB2 (Homo sapiens, UniProt P04626).
T5 construct: Kinases are expressed as either kinase domains or full length constructs; made in house
T5 sequence (P04626 23-1255, species assumed): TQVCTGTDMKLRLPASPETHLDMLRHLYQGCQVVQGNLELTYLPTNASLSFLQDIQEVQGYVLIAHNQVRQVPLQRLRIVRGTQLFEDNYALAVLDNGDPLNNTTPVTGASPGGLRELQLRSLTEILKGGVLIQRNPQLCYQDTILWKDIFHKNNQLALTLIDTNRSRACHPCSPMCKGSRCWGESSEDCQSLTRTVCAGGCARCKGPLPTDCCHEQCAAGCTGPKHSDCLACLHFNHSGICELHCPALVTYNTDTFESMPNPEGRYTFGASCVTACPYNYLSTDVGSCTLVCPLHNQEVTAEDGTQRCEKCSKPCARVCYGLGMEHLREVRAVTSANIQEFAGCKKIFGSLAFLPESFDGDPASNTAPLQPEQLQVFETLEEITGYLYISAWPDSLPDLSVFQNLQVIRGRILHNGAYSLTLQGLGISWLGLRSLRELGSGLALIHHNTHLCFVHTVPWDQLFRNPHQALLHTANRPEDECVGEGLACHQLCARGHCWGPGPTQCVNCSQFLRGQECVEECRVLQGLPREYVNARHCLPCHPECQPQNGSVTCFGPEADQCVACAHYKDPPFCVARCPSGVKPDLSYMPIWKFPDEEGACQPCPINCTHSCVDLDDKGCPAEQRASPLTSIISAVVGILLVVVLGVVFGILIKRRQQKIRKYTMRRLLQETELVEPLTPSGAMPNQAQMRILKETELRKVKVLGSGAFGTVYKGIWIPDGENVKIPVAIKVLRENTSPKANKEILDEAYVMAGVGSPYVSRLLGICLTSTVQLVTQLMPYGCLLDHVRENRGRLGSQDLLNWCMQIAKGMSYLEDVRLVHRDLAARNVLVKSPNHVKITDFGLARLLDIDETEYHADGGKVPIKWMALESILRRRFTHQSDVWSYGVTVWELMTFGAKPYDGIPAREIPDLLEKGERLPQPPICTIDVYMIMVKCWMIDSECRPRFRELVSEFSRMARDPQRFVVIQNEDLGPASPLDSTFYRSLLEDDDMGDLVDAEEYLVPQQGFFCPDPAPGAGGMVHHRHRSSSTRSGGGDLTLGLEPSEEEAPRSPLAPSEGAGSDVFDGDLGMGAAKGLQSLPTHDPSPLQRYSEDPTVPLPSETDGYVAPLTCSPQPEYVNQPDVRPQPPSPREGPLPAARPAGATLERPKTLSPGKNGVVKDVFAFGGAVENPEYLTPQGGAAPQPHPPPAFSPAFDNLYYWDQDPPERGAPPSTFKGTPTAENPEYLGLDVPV
As to the kind of experiment: Kinase inhibition assay (33P transfer), ErbB2. The settings on record: read-out: ErbB2-2. The essentials: as §2

In test [6] the target is T6, Kdr (Homo sapiens, UniProt P35968).
T6 construct: Kinases are expressed as either kinase domains or full length constructs; made in house
T6 sequence (P35968 20-1356, species assumed): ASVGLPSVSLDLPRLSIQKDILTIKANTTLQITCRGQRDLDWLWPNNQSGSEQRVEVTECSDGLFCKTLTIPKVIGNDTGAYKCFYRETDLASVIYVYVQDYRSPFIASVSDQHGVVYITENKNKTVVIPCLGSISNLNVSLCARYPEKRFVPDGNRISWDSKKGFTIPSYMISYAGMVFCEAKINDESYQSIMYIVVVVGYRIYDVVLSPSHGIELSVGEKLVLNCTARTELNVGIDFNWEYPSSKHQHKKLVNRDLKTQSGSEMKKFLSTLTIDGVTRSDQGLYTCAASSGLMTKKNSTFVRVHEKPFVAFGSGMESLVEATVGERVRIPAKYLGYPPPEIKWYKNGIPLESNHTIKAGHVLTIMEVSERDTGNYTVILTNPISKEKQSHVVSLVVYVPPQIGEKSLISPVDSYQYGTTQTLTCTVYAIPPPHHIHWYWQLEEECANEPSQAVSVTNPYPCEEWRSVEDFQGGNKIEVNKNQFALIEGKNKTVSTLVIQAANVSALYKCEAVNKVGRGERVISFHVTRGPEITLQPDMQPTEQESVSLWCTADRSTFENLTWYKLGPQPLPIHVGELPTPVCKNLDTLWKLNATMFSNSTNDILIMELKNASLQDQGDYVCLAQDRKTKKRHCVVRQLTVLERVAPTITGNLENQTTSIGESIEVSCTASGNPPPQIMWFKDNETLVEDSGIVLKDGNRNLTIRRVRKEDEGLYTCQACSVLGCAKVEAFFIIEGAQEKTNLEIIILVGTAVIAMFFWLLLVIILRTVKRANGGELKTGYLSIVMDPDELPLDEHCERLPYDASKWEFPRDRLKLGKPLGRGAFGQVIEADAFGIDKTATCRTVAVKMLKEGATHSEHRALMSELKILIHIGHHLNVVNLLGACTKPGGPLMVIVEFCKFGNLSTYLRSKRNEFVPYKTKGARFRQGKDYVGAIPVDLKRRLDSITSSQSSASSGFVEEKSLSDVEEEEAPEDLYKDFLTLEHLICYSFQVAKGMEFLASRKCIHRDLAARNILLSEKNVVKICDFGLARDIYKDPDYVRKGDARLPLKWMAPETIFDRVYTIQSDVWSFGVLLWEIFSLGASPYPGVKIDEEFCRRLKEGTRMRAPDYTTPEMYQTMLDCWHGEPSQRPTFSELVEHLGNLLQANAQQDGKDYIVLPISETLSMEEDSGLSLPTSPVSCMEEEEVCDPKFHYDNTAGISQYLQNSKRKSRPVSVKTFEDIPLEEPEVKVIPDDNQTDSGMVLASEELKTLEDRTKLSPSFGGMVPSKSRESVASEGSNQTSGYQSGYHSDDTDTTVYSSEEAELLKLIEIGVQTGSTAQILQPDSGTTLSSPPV
As to the kind of experiment: Kinase inhibition assay (33P transfer), Kdr. The settings on record: Table 3, class symbols; read-out: KDR-1. The method, boiled down: as §1

For test [7], the target named is T7, c-Met (Homo sapiens, UniProt P08581).
T7 construct: Kinases are expressed as either kinase domains or full length constructs; made in house
As to the kind of experiment: Kinase inhibition assay (33P transfer), c-Met. Particulars: Table 2, class symbols A-E; read-out: Met-1. The method, boiled down:
as §2

The target of test [8] is T8, AKT (Homo sapiens, UniProt Q9Y243).
T8 construct: Kinases are expressed as either kinase domains or full length constructs; made in house
As to the kind of experiment: Kinase inhibition assay (33P transfer), AKT. Particulars: Table 2, class symbols A-E; read-out: AKT3-1. The method, boiled down:
as §1

The target of test [9] is T9, IGFR-1 (Homo sapiens, UniProt P08069).
T9 construct: Kinases are expressed as either kinase domains or full length constructs; made in house
T9 sequence (P08069 31-1367): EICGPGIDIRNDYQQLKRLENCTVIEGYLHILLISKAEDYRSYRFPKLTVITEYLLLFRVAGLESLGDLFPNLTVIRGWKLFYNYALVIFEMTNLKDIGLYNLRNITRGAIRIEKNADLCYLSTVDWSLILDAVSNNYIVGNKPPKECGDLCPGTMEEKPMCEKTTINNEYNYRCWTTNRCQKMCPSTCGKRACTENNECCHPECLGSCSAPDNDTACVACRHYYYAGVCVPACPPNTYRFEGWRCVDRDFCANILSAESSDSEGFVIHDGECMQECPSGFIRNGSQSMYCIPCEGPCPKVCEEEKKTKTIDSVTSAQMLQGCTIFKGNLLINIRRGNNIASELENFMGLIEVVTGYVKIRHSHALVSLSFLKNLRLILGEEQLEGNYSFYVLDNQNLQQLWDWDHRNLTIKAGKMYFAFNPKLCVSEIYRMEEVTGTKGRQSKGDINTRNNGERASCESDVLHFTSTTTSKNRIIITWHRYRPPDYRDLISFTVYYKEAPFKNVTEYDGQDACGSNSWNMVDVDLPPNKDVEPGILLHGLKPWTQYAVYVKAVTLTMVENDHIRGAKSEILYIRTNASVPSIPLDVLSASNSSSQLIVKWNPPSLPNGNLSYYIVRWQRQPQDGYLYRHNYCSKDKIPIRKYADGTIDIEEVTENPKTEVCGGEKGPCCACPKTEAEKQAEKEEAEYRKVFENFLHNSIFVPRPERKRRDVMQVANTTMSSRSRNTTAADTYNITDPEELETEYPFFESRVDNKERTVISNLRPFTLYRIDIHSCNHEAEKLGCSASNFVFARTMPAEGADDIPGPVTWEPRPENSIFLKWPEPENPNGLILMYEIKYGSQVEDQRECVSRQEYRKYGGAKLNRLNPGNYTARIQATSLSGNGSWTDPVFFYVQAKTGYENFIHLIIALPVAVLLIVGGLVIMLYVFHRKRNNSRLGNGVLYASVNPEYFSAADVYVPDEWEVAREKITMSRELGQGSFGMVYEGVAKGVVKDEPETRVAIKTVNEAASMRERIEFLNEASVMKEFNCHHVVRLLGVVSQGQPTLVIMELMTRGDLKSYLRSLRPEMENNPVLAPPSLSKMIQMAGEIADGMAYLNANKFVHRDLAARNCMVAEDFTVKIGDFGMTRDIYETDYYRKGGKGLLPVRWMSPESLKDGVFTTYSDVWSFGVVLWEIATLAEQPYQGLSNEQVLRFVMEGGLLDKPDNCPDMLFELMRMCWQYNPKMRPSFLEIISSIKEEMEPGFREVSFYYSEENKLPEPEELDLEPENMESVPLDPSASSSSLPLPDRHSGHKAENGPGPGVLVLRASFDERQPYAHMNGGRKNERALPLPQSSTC
As to the kind of experiment: Kinase inhibition assay (33P transfer), IGFR-1. Particulars: Table 2, class symbols A-E.

The target of test [10] is T10, PDGFRB (Homo sapiens, UniProt P09619).
T10 construct: Kinases are expressed as either kinase domains or full length constructs; made in house
T10 sequence (P09619 33-1106, species assumed): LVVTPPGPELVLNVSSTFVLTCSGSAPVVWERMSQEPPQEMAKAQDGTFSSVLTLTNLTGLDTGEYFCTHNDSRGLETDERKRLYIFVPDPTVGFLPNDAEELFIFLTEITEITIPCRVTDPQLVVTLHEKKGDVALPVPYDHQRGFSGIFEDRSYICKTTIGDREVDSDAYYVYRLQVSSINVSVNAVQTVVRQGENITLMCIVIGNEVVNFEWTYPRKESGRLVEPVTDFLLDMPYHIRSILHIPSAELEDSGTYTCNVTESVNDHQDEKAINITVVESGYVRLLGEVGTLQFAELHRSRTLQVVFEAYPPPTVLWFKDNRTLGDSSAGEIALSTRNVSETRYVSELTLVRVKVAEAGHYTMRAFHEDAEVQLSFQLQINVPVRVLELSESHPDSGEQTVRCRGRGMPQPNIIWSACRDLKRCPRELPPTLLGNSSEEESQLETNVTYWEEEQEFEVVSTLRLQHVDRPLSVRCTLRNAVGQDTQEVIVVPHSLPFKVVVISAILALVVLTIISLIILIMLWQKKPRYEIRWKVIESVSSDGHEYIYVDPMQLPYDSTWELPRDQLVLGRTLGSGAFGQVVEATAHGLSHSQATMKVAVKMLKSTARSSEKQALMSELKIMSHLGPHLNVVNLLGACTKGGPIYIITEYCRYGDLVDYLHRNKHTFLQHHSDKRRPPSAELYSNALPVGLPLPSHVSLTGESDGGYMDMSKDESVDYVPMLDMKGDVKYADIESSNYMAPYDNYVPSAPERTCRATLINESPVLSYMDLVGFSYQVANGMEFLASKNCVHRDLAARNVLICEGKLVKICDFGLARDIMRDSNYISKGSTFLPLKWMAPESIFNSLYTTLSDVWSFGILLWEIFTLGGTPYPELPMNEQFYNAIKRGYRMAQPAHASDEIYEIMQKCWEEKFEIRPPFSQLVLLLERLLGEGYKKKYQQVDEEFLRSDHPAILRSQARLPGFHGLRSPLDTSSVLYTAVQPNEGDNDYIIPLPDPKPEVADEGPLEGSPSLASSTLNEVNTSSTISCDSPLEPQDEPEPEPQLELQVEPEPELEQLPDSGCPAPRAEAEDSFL
As to the kind of experiment: Kinase inhibition assay (33P transfer), PDGFRB. The settings on record: read-out: PDGFRB-1.

With `CN(c1ccc2c(cnn2Cc2ccccc2)c1)c1ncnc(Nc2cccc(Cc3nnn[nH]3)c2)n1` [Compound 671], the IC50 in [1] was 7.15 to 9.19 µM; in test [2], above 9.19 µM; in test [3] it was 7.15 to 9.19 µM; in test [4], below 0.817 µM; in test [5] it was below 0.817 µM; in test [6], 0.817 to 4.9 µM. In addition, the IC50 in test [7] is below 0.817 µM; in test [8] it was above 9.19 µM; in test [9] it was 4.9 to 7.15 µM; in test [10], 0.817 to 4.9 µM.
Consider `COc1ccc(Nc2ncnc(Nc3ccc4c(c3)C(=O)OC4)n2)cc1OC` [Compound 894], for which the IC50 in [1] is above 11.9 µM; in test [2], above 11.9 µM; in test [3], 9.23 to 11.9 µM; in [4], 6.33 to 9.23 µM; in test [5], above 11.9 µM; in test [6], 1.05 to 6.33 µM. Besides, the IC50 in [7] is above 11.9 µM; in test [8] it was above 11.9 µM; in [9], above 11.9 µM; in test [10], below 1.05 µM.
On to `COc1cc(Nc2ncnc(-c3cccnc3Nc3cccc(C(F)(F)F)c3)n2)cc(OC)c1OC` [Compound 836], for which the IC50 in [1], in [2], in [3], in test [4], in test [5] and in test [6] was above 9.03 µM in each case. Also, the IC50 in test [7], in test [8], in test [9] and in [10] was above 9.03 µM throughout.
On to `COc1ccc(Nc2ncnc(N(C)CC(O)c3ccccc3)n2)cc1OC` (centres unmarked) [Compound 868], for which the IC50 is above 11.8 µM in test [1]; above 11.8 µM in test [2]; 1.05 to 6.29 µM in test [3]; 1.05 to 6.29 µM in test [4]; above 11.8 µM in test [5]; above 11.8 µM in test [6]. The IC50 was above 11.8 µM in test [7], above 11.8 µM in test [8], above 11.8 µM in [9] and 1.05 to 6.29 µM in test [10].
With `COc1cc(Nc2ncnc(-c3cccnc3NC3CCN(Cc4ccccc4)CC3)n2)cc(OC)c1OC` [Compound 847], the IC50 in test [1], in test [2], in [3], in test [4], in test [5] and in test [6] was above 8.53 µM throughout. Also, the IC50 in test [7], in test [8], in test [9] and in test [10] was above 8.53 µM each time.
Regarding `COC(=O)c1ccc(-c2cc(Nc3ncnc(NCCc4c[nH]c5ccccc45)n3)[nH]n2)cc1` [Compound 806], the IC50 is 0.88 to 5.28 µM in test [1]; above 9.9 µM in [2]; 0.88 to 5.28 µM in test [3]; 0.88 to 5.28 µM in test [4]; 0.88 to 5.28 µM in test [5]; 0.88 to 5.28 µM in [6]. Also, the IC50 in test [7] is 0.88 to 5.28 µM; in test [8], above 9.9 µM; in [9] it was 0.88 to 5.28 µM; in [10], above 9.9 µM.
As for `COc1cc(Nc2ncnc(Nc3ccc(OCCO)cc3)n2)cc(OC)c1OC` [Compound 636], the IC50 in test [1] is below 0.968 µM; in test [2], above 10.9 µM; in [3] it was above 10.9 µM; in test [4], 0.968 to 5.81 µM; in [5] it was 0.968 to 5.81 µM; in test [6] it was below 0.968 µM. In addition, the IC50 was above 10.9 µM in test [7], above 10.9 µM in test [8], above 10.9 µM in test [9] and below 0.968 µM in test [10].
Turning to `COc1cc(Nc2ncnc(-c3cccnc3Nc3ccc(Oc4ccccc4)cc3)n2)cc(OC)c1OC` [Compound 839], the IC50 in [1] is above 8.61 µM; in test [2], above 8.61 µM; in [3], above 8.61 µM; in [4], above 8.61 µM; in test [5], 0.765 to 4.59 µM; in test [6], above 8.61 µM. Also, the IC50 is above 8.61 µM in test [7], above 8.61 µM in [8], above 8.61 µM in test [9] and 4.59 to 6.7 µM in [10].
For the compound `COc1ccc(Nc2ncnc(Nc3ccc4c(cnn4Cc4ccccc4)c3)n2)cc1` [Compound 905], the IC50 in [1] was above 10.6 µM; in [2], above 10.6 µM; in test [3] it was 0.945 to 5.67 µM; in [4], below 0.945 µM; in test [5], 0.945 to 5.67 µM; in [6], 0.945 to 5.67 µM. Also, the IC50 in [7] was 0.945 to 5.67 µM; in test [8], above 10.6 µM; in test [9] it was above 10.6 µM; in test [10] it was 0.945 to 5.67 µM.
As to `Cc1ccc2c(c1)CCCN2c1ncnc(Nc2ccc(F)c(F)c2)n1` [Compound 893], the IC50 in test [1] was above 12.7 µM; in test [2], above 12.7 µM; in test [3], above 12.7 µM; in test [4], 1.13 to 6.79 µM; in test [5] it was above 12.7 µM; in test [6] it was above 12.7 µM. Besides, the IC50 in [7] is 1.13 to 6.79 µM; in test [8], 1.13 to 6.79 µM; in test [9] it was above 12.7 µM; in test [10] it was 1.13 to 6.79 µM.
On to `FC(F)(F)Oc1cccc(Nc2ncnc(Nc3ccc4c(cnn4Cc4ccccc4)c3)n2)c1` [Compound 907], for which the IC50 was above 9.43 µM in test [1]; above 9.43 µM in test [2]; above 9.43 µM in test [3]; below 0.838 µM in [4]; 0.838 to 5.03 µM in test [5]; above 9.43 µM in [6]. The IC50 is 5.03 to 7.33 µM in test [7], above 9.43 µM in [8], above 9.43 µM in test [9] and above 9.43 µM in [10].
As to `COc1ccc(Nc2ncnc(N(C)c3ccc(Cl)cc3)n2)cc1OC` [Compound 795], the IC50 in test [1] was 1.08 to 6.45 µM; in test [2], above 12.1 µM; in test [3], above 12.1 µM; in test [4], below 1.08 µM; in test [5] it was below 1.08 µM; in test [6] it was 1.08 to 6.45 µM. The IC50 in [7] is below 1.08 µM; in [8], above 12.1 µM; in test [9], 9.41 to 12.1 µM; in test [10] it was below 1.08 µM.
For the compound `c1ccc(CNc2ncccc2-c2ncnc(Nc3cccc(Cn4ccnn4)c3)n2)cc1` [Compound 1101], the IC50 is 5.51 to 8.04 µM in [1]; above 10.3 µM in test [2]; 5.51 to 8.04 µM in test [3]; 0.918 to 5.51 µM in [4]; above 10.3 µM in test [5]; below 0.918 µM in test [6]. Besides, the IC50 in test [7] was 5.51 to 8.04 µM; in [8], above 10.3 µM; in [9] it was above 10.3 µM; in test [10], below 0.918 µM.
For the compound `COc1cc(Nc2ncnc(-c3cccnc3Nc3ccccc3)n2)ccc1NC(=O)CCCN1CCNCC1` [Compound 1093], the IC50 is 0.741 to 4.45 µM in [1]; above 8.34 µM in test [2]; 4.45 to 6.49 µM in [3]; 0.741 to 4.45 µM in test [4]; above 8.34 µM in [5]; below 0.741 µM in [6]. Moreover, the IC50 in [7] was 0.741 to 4.45 µM; in test [8], above 8.34 µM; in [9] it was 6.49 to 8.34 µM; in [10], below 0.741 µM.
